One data set can be described thus: in vivo. The note with it: mouse.
Data set [1] relates to Mycobacterium tuberculosis H37 Rv. Kind of data set: survival time of mice infected with Mycobacterium tuberculosis H37 Rv. Type of data set: in vivo. Particulars: once-a-week per os vs daily rifampicin at same dose level; total amount about 1/6. The text has this:
(§1) The unexpected biological characteristics of the novel rifamycins have been evidenced by considering the survival time after a daily administration of rifampicin and a once-a-week administration of the same dose level per os of 3-[4-(2-propenyl)-1-piperazinyl]iminorifamycin SV (hereinafter referred to as "propenyl derivative") to mice infected with Mycobacterium tuberculosis H37 Rv. […] For instance, the value of the minimal inhibitory concentration of propenyl derivative against Mycobacterium tuberculosis H37 Rv is 0.02 μg/ml while that of rifampicin is 0.5 μg/ml.

The test system is the same in data set [2]. Description: minimal inhibitory concentration (antimicrobial activity). Type of data set: cell-based. Particulars: H37RV, read-out: minimal inhibitory concentration.
Text: as §1

Another data set can be described thus: toxicity (LD50) in mice. Particulars: in words.
The test system of the next data set is Staphylococcus aureus. Kind of data set: experimental Staphylococcus aureus infection in mice. Type of data set: in vivo. Particulars: po. As for the experimental part: In fact, propynyl derivative (i.e. 3-[4-(2-propynyl)-1-piperazinyl]iminomethylrifamycin SV) in representative experiments has shown an ED50 value of 0.20 mg/kg p.o. The toxicity is very low, the LD 50 value in mice being higher than 2000 mg/kg p.o. The new compounds are suitably administered in usual pharmaceutical combinations with conventional carriers.

≈ marks a conversion by molar mass, not a printed value.

Experimental findings from US4002754A, “Substituted piperazinyliminorifamycins” (Gruppo Lepetit S.p.A., priority 1975, dated 1977) are described below.

Consider `C=CCN1CCN(N=Cc2c3c(O)c4c(O)c(C)c5c(c4c2O)C(=O)C(C)(OC=CC(OC)C(C)C(OC(C)=O)C(C)C(O)C(C)C(O)C(C)C=CC=C(C)C(=O)N3)O5)CC1` (stereo not shown) [propenyl derivative, 3-[4-(2-Propenyl)-1-piperazinyl]iminomethylrifamycin SV], for which the LD50 in the data set “in vivo” (ip) was approximately 700 mg/kg; in “in vivo” (po), approximately 1500 mg/kg. Also, in data set [1], the survival time result is reported as “about the same survival time”. Besides, the MIC in data set [2] is 0.02 µg/mL (≈ 0.0236 µM).

In the case of `C#CCN1CCN(N=Cc2c3c(O)c4c(O)c(C)c5c(c4c2O)C(=O)C(C)(OC=CC(OC)C(C)C(OC(C)=O)C(C)C(O)C(C)C(O)C(C)C=CC=C(C)C(=O)N3)O5)CC1` (stereo not shown) [propynyl derivative, 3-[4-(2-Propynyl)-1-piperazinyl]iminomethylrifamycin SV], in “toxicity (LD50) in mice”, the toxicity result is listed as “very low”. The molecule also came in with an LD50 in the data set “in vivo” (po) of more than 2000 mg/kg. For the same molecule, in the data set with Staphylococcus aureus, the ED50 was 0.2 mg/kg.
